# Assay: in vivo
# Details: mouse, plasma; for clearance: iv, 15 mg/kg
SMILES,clearance,"AUC (po, 50 mg/kg)"
"CCN1C(=O)[C@@H](NC(=O)c2cccc(C)c2)[C@@H](c2ccc(F)cc2)c2c(C)nn(-c3ccccc3)c21 (relative stereo) [Compound 2, N-(rel-(4S,5S)-7-ethyl-4-(4-fluorophenyl)-3-methyl-6-oxo-1-phenyl-4,5,6,7-tetrahydro-1H-pyrazolo[3,4-b]pyridin-5-yl)-3-methylbenzamide]",86.7 mL/min/kg,2.9 µM·h
"CCN1C(=O)[C@@H](NC(=O)c2cccc(C(F)(F)F)c2)[C@@H](c2ccc(F)cc2)c2c(CN)nn(-c3ccccc3)c21 (relative stereo) [Compound 40, N-(rel-(4S,5S)-3-(aminomethyl)-7-ethyl-4-(4-fluorophenyl)-6-oxo-1-phenyl-4,5,6,7-tetrahydro-1H-pyrazolo[3,4-b]pyridin-5-yl)-3-(trifluoromethyl)benzamide]",20 mL/min/kg,

# — paper PMC8159160 (Journal of medicinal chemistry, 2021)
